Usually solubility stands for the dissolved amount per volume that the medium holds.

Series [1] in a line: Biodistribution in plasma and brain after single oral dose in female CB17 SCID mice. It counts as in vivo. Particulars: mouse, oral 50 mg/kg, 8 h. As to the method: Female non-tumor bearing Fox Chase CB17 SCID mice were orally administered a single dose as specified in Table B1.
Brain tissues were excised and plasma was collected from all the animals receiving Compound I, or tucatinib at 1 hour, 4 hours, and 8 hours post-administration. Tucatinib was used as a reference agent. Tucatinib is a clinically approved therapy for HER2 positive breast cancer patients with brain metastases. The harvested brains were rinsed in ice-cold phosphate-buffered saline and weighed. All plasma and brain samples were stored at approximately −80° C. until thawed for LC-MS/MS analysis.
Prior to analysis, brain tissues were homogenized 1:5 with phosphate buffer. Average free brain-to-free plasma ratio (Kp,uu) was calculated from individual mice by using total concentration values determined in the brain and plasma at individual time points, or by calculating the area under the curve (AUC) and converting the values to free concentration (or AUC) with in vitro binding parameters determined in the brain (fu,b) and plasma (fu,p) as follows:
Kp,uu=Brain Concentration (or AUC)*fu,b/Plasma Concentration (or AUC)*fu,p.
Free fraction in the brain (fu,b) and in plasma (fu,p) was determined with equilibrium dialysis as follows: The brain tissue homogenate or plasma from the mice were spiked to yield a final concentration of 1 μM Compound I, or 5 μM tucatinib. Compound I and tucatinib were incubated in equilibrium dialysis plate on a shaking incubator at 37° C. with 5% CO2 at 450 rpm for 8 hours and 24 hours, respectively. Following the incubation, aliquots of the matrix and the buffer samples were sampled and the concentration of Compound I, or tucatinib were determined.
where fu,b,d is fraction unbound determined with 20% brain homogenate.

A short description of series [2]: Moisture uptake by dynamic vapor sorption (DVS). The series is classed as physicochemical. As to conditions: 25° C./80% relative humidity. As to the method: DVS was measured via a SMS (Surface Measurement Systems) DVS Intrinsic.
The relative humidity at 25° C. was calibrated against deliquescence point of LiCl, Mg(NO3)2 and KCl.
Freebase Compound I was stirred with an equimolar amount of malonic acid in acetone at RT for 14.5 hrs. The slurry was subjected to vacuum drying at 50° C. for about 6 hrs. The malonate salt of Compound I was analyzed by XRPD, DSC, TGA, ^1H NMR, and DVS. […] As shown in the TGA graph, a weight loss of about 0.7% up to 130° C. was observed.
Freebase Compound I was stirred with an equimolar amount of glycolic acid in acetone at RT for 2 days, followed by vacuum drying at 50° C. for 2 hrs. The glycolate salt of Compound I was analyzed by XRPD, DSC, TGA, ^1H NMR, and DVS. […] As shown in the TGA graph, a weight loss of about 1.3% up to 120° C. was observed.

The nature of series [3]: Solubility screening of malonate salt of Compound I in various solvents at RT. The series is classed as physicochemical. As to the method:
The solubility of the malonate salt of Compound I as prepared according to Example 2 in various solvents at RT was measured. The malonate salt of Compound I (approximately 2 mg) was added to a 3-mL glass vial. The solvent was then added stepwise (50/50/200/200/500/1000 μL) into the vial until the solids were dissolved visually or a total volume of 2 mL was reached.

Where a name gives a salt, the structure may show the parent alone.

For the compound `Cc1cc(Nc2ncnc3ccc(NC4=NC(C)(C)CO4)cc23)ccc1Oc1ccn2ncnc2c1` [tucatinib, reference compound], the Unbound brain concentration result in series [1] is recorded as “below the limit of quantitation (BLOQ)”.
The compound `C=CC(=O)Nc1cc(Nc2cc(N3OCC[C@@H]3c3cc(F)cc(F)c3)ncn2)c(OC)cc1N1CCC(N2CCN(C3CC3)CC2)CC1` [malonate salt of Compound I] gave a Moisture uptake in series [2] of 0.19%. Moreover, the solubility in series [3] (Water, RT) is under 1200 µg/mL; in series [3] (organic solvent or mixture, 1,4-Dioxane, RT) it was 2100 to 7000 µg/mL; in series [3] (organic solvent or mixture, 2-MeTHF, RT), 1100 to 2200 µg/mL; in series [3] (organic solvent or mixture, ACN, RT), 6000 to 18000 µg/mL; in series [3] (organic solvent or mixture, Acetone, RT) it was 1100 to 2200 µg/mL; in series [3] (organic solvent or mixture, Anisole, RT), under 900 µg/mL. The solubility in series [3] (organic solvent or mixture, CHCl3, RT) was over 40000 µg/mL; in series [3] (organic solvent or mixture, CPME, RT), under 1100 µg/mL; in series [3] (organic solvent or mixture, DCM, RT), 20000 to 40000 µg/mL; in series [3] (organic solvent or mixture, DMSO, RT), over 40000 µg/mL; in series [3] (organic solvent or mixture, EtOAc, RT), under 1000 µg/mL; in series [3] (organic solvent or mixture, EtOH, RT), 1900 to 6300 µg/mL. Further, the solubility is under 1200 µg/mL in series [3] (organic solvent or mixture, IPA, RT); under 900 µg/mL in series [3] (organic solvent or mixture, IPAc, RT); under 1200 µg/mL in series [3] (organic solvent or mixture, MIBK, RT); under 1000 µg/mL in series [3] (organic solvent or mixture, MTBE, RT); over 46000 µg/mL in series [3] (organic solvent or mixture, MeOH, RT); 2100 to 7000 µg/mL in series [3] (organic solvent or mixture, THF, RT). Besides, the solubility was under 1000 µg/mL in series [3] (organic solvent or mixture, Toluene, RT) and under 1100 µg/mL in series [3] (organic solvent or mixture, n-Heptane, RT).

For the origin of these results see US20260306491A1, “EGFR INHIBITOR FOR TREATING CANCERS COMPRISING ATYPICAL EGFR MUTATIONS” (ORIC Pharmaceuticals, Inc., priority 2023, published 2026).
